From PubChem BioAssay AID330 (DTP/NCI, 2004) come the findings set out here.

Values joined by “and” are separate entries in the source; they are usually repeats but may differ in a detail not shown here. Equal values may be shown once. Inconclusive results and toxic doses are left out.

The experiment has as its system P388 leukemia ip, CD2F1 mice, survival T/C. As to the kind of experiment: NCI In Vivo Anticancer Drug Screen. Data for tumor model P388 Leukemia (intraperitoneal) in CD2F1 (CDF1) mice. The settings on record: endpoint: median survival time, higher = longer survival. The method, then:
The antitumor activity of compounds was measured in mice bearing transplantable tumors. Survival or tumor size were measured and the results are expressed as the measurement made in the treated group (T) divided by the measurement made in the vehicle treated control group (C). The tumor model used in this assay is P388 Leukemia (intraperitoneal) in CD2F1 (CDF1) mice

The mark [1] stands for this setting: dose: 50.0 mg/kg/injection, schedule: Q01DX009 (ip), vehicle: saline.
[2] abbreviates: dose: 200.0 mg/kg/injection, schedule: Q01DX009 (ip), vehicle: saline.
[3] abbreviates: dose: 400.0 mg/kg/injection, schedule: Q01DX009 (ip), vehicle: saline.
Setting [4] is: dose: 60.0 mg/kg/injection, schedule: Q01DX005 (ip), vehicle: saline with Tween-80.
Where [5] appears, read: dose: 120.0 mg/kg/injection, schedule: Q01DX005 (ip), vehicle: saline with Tween-80.
[6] abbreviates: dose: 240.0 mg/kg/injection, schedule: Q01DX005 (ip), vehicle: saline with Tween-80.
Setting [7] is: dose: 50.0 mg/kg/injection, schedule: Q01DX005 (ip), vehicle: saline with Tween-80.
Where [8] appears, read: dose: 100.0 mg/kg/injection, schedule: Q01DX005 (ip), vehicle: saline with Tween-80.
Setting [9] is: dose: 200.0 mg/kg/injection, schedule: Q01DX005 (ip), vehicle: saline with Tween-80.
Where [10] appears, read: dose: 100.0 mg/kg/injection, schedule: Q04DX003 (ip), vehicle: saline with Tween-80.
The mark [11] stands for this setting: dose: 200.0 mg/kg/injection, schedule: Q04DX003 (ip), vehicle: saline with Tween-80.
Where [12] appears, read: dose: 100.0 mg/kg/injection, schedule: Q04DX003 (ip), vehicle: saline.
Setting [13] is: dose: 100.0 mg/kg/injection, schedule: Q01DX009 (ip), vehicle: saline with Tween-80.
Where [14] appears, read: dose: 200.0 mg/kg/injection, schedule: Q01DX009 (ip), vehicle: saline with Tween-80.
Setting [15] is: dose: 400.0 mg/kg/injection, schedule: Q01DX009 (ip), vehicle: saline with Tween-80.
Where [16] appears, read: dose: 50.0 mg/kg/injection, schedule: Q01DX009 (ip), vehicle: saline with Tween-80.
[17] abbreviates: dose: 100.0 mg/kg/injection, schedule: Q01DX009 (ip), vehicle: Klucel (hydroxypropylcellulose) (HPC).
The mark [18] stands for this setting: dose: 200.0 mg/kg/injection, schedule: Q01DX009 (ip), vehicle: Klucel (hydroxypropylcellulose) (HPC).

On to `CC(C)(C)C1=CC(=C/C=C/c2cc(C(C)(C)C)[o+]c(C(C)(C)C)c2)C=C(C(C)(C)C)O1`, for which the T/C is 105 % of control (dose: 1.56 mg/kg/injection, schedule: Q01DX009 (ip), vehicle: Klucel (hydroxypropylcellulose) (HPC)); 96 % of control (dose: 3.12 mg/kg/injection, schedule: Q01DX009 (ip), vehicle: Klucel (hydroxypropylcellulose) (HPC)); 109 % of control and 111 % of control (dose: 6.25 mg/kg/injection, schedule: Q01DX009 (ip), vehicle: Klucel (hydroxypropylcellulose) (HPC)); 108 % of control and 116 % of control (dose: 12.5 mg/kg/injection, schedule: Q01DX009 (ip), vehicle: Klucel (hydroxypropylcellulose) (HPC)); 109 % of control (dose: 25.0 mg/kg/injection, schedule: Q01DX009 (ip), vehicle: Klucel (hydroxypropylcellulose) (HPC)).
Turning to `O=C(OCCO)N1CCN(C(=O)OCCO)CC1`, the T/C was 101 % of control under setting [1]; 103 % of control (dose: 100.0 mg/kg/injection, schedule: Q01DX009 (ip), vehicle: saline); 101 % of control under setting [2]; 98 % of control under setting [3].
For the compound `CN1CCC/C1=N\S(=O)(=O)/N=C1\CCCN1C`, the T/C is 92 % of control (dose: 50.0 mg/kg/injection, schedule: Q01DX005 (ip), vehicle: saline); 100 % of control (dose: 100.0 mg/kg/injection, schedule: Q01DX005 (ip), vehicle: saline); 99 % of control (dose: 200.0 mg/kg/injection, schedule: Q01DX005 (ip), vehicle: saline).
As to `CC(C)CN1C(=O)C2C3CCC(O3)C2C1=O` (configuration not stated), the T/C is 91 % of control under setting [4], 91 % of control under setting [5] and 91 % of control under setting [6].
Regarding `COC(=O)CCC(=O)C(C#N)c1nc2ccccc2s1` (configuration not stated), the T/C under setting [7] is 94 % of control, the T/C under setting [8] was 92 % of control and the T/C under setting [9] is 92 % of control.
As for `COc1cc2cc3cc(-c4ccc(Cl)cc4)c(N4CCN(C)CC4)nc3nc2cc1OC`, the T/C is, setting by setting: under setting [4], 94 % of control; under setting [5], 101 % of control; under setting [6], 111 % of control.
Take `COc1cc2cc3c(-c4ccccc4)noc3nc2cc1OC`: the T/C by setting is: under setting [4], 106 % of control; under setting [5], 93 % of control; under setting [6], 90 % of control.
Consider `COC1=CC(c2ccccc2)=N/C1=C/c1ccc[nH]1`, for which the T/C was 95 % of control (dose: 50.0 mg/kg/injection, schedule: Q01DX001 (ip), vehicle: Klucel (hydroxypropylcellulose) (HPC)); 100 % of control (dose: 100.0 mg/kg/injection, schedule: Q01DX001 (ip), vehicle: Klucel (hydroxypropylcellulose) (HPC)); 98 % of control (dose: 200.0 mg/kg/injection, schedule: Q01DX001 (ip), vehicle: Klucel (hydroxypropylcellulose) (HPC)).
As for `CC(C)CNS(=O)(=O)c1ncnc2nc[nH]c12`, the T/C reads like this: under setting [10], 100 % of control; under setting [11], 87 % of control.
On to `COC(=O)C/C(=C/C=C1/C(=O)ON=C1C)c1c(C)[nH]oc1=O`, for which the T/C runs as follows: under setting [12], 100 % of control; (dose: 200.0 mg/kg/injection, schedule: Q04DX003 (ip), vehicle: saline) 100 % of control; (dose: 400.0 mg/kg/injection, schedule: Q04DX003 (ip), vehicle: saline) 100 % of control.
Turning to `Nc1nc(Br)c2[nH]cnc2n1`, the T/C by setting is: under setting [13], 110 % of control; under setting [10], 118 % of control; under setting [14], 120 % of control; under setting [11], 113 % of control; under setting [15], 90 % of control; (dose: 400.0 mg/kg/injection, schedule: Q04DX003 (ip), vehicle: saline with Tween-80) 109 % of control.
In the case of `Cc1cccc(C(C#N)C(=O)CCCC(=O)Nc2ccccc2[N+](=O)[O-])c1` (configuration not stated), the T/C by setting is: under setting [4], 98 % of control; under setting [5], 100 % of control; under setting [6], 94 % of control.
In the case of `CN(C)c1nc(N(C)C)n2c(-c3ccccc3[N+](=O)[O-])nnc2n1`, the T/C runs as follows: under setting [16], 99 % of control; under setting [13], 102 % of control; under setting [14], 99 % of control.
`COc1cc(C(c2c(O)c3ccccc3oc2=O)c2c(O)c3ccccc3oc2=O)cc(OC)c1O`: the T/C by setting is: under setting [4], 99 % of control; under setting [5], 111 % of control.
Turning to `COc1nc(N)c2cnn(C3CCCCO3)c2n1` (configuration not stated), the T/C is, setting by setting: (dose: 100.0 mg/kg/injection, schedule: Q04DX002 (ip), vehicle: saline with Tween-80) 99 % of control; (dose: 200.0 mg/kg/injection, schedule: Q04DX002 (ip), vehicle: saline with Tween-80) 96 % of control; (dose: 400.0 mg/kg/injection, schedule: Q04DX002 (ip), vehicle: saline with Tween-80) 101 % of control.
With `O=c1c(N=Nc2nc3ccccc3s2)c(O)n(-c2ccccc2)c(=S)n1-c1ccccc1`, the T/C (dose: 60.0 mg/kg/injection, schedule: Q01DX005 (ip), vehicle: saline) was 109 % of control; the T/C (dose: 120.0 mg/kg/injection, schedule: Q01DX005 (ip), vehicle: saline) was 100 % of control; the T/C (dose: 240.0 mg/kg/injection, schedule: Q01DX005 (ip), vehicle: saline) was 106 % of control.
As to `C=CCc1ccc(OC(=O)Nc2ccc(C)cc2[N+](=O)[O-])c(OC)c1`, the T/C runs as follows: under setting [16], 88 % of control; under setting [13], 88 % of control; under setting [14], 95 % of control.
With `[Cl][Pt+2][Cl].[NH-]C1CCCC2CCC[N-]C12` (configuration not stated), the T/C reads like this: under setting [16], 154 % of control; under setting [14], 174 % of control and 184 % of control; under setting [15], 176 % of control.
For the compound `COC(=O)c1cc(C2OC3OC(C)(C)OC3C2OC)nn1-c1ccc([N+](=O)[O-])cc1` (configuration not stated), the T/C under setting [7] is 109 % of control, the T/C under setting [8] was 100 % of control and the T/C under setting [9] was 104 % of control.
Consider `O=S1(=O)CC2=C(C1)C1C=CC2C2C=CC12` (configuration not stated), for which the T/C by setting is: (dose: 25.0 mg/kg/injection, schedule: Q04DX003 (ip), vehicle: saline) 98 % of control; (dose: 50.0 mg/kg/injection, schedule: Q04DX003 (ip), vehicle: saline) 101 % of control; under setting [12], 107 % of control and 96 % of control.
Take `CC(=O)Oc1cc2c(=O)oc3c(OC(C)=O)c(OC(C)=O)c(OC(C)=O)c4c(=O)oc(c1OC(C)=O)c2c34`: the T/C (dose: 25.0 mg/kg/injection, schedule: Q01DX009 (ip), vehicle: saline) is 101 % of control; the T/C under setting [1] is 86 % of control; the T/C under setting [17] was 86 % of control; the T/C under setting [18] is 86 % of control; the T/C under setting [2] was 88 % of control; the T/C under setting [3] is 94 % of control.
Regarding `C/C(=N\NC(=S)N1CCCCC1)c1ccccn1`, the T/C is 98 % of control (dose: 6.25 mg/kg/injection, schedule: Q01DX009 (ip), vehicle: saline with Tween-80) and 100 % of control (dose: 12.5 mg/kg/injection, schedule: Q01DX009 (ip), vehicle: saline with Tween-80).
Consider `OC(CC(O)(C(F)(F)F)C(F)(F)F)CC(O)(C(F)(F)F)C(F)(F)F`, for which the T/C is, setting by setting: (dose: 6.25 mg/kg/injection, schedule: Q04DX003 (ip), vehicle: saline with Tween-80) 109 % of control; (dose: 12.5 mg/kg/injection, schedule: Q04DX003 (ip), vehicle: saline with Tween-80) 109 % of control; (dose: 25.0 mg/kg/injection, schedule: Q04DX003 (ip), vehicle: saline with Tween-80) 95 % of control.
In the case of `CC(=O)OC1CC(/C=C/C(=O)OC2=C(O)CCC2=O)=CN1` (configuration not stated), the T/C (dose: 4.37 mg/kg/injection, schedule: Q01DX001 (ip), vehicle: Klucel (hydroxypropylcellulose) (HPC)) is 100 % of control; the T/C (dose: 8.75 mg/kg/injection, schedule: Q01DX001 (ip), vehicle: Klucel (hydroxypropylcellulose) (HPC)) was 99 % of control; the T/C (dose: 17.5 mg/kg/injection, schedule: Q01DX001 (ip), vehicle: Klucel (hydroxypropylcellulose) (HPC)) was 102 % of control; the T/C (dose: 35.0 mg/kg/injection, schedule: Q01DX001 (ip), vehicle: Klucel (hydroxypropylcellulose) (HPC)) is 105 % of control.
As for `Fc1ccc(-c2cc(-c3cccs3)cc(-c3ccccc3)n2)cc1`, the T/C is 121 % of control (dose: 50.0 mg/kg/injection, schedule: Q01DX009 (ip), vehicle: Klucel (hydroxypropylcellulose) (HPC)); 102 % of control under setting [17]; 100 % of control under setting [18].
